Data as given in patent US20230329236A1, “HERBICIDAL PYRIMIDINE DERIVATIVES” (MoA Technology Limited, priority 2020, published 2023).

Experiments:
Conditions in all cases: 336 h, Table 3, post-emergence, 14±1 days post application
Veronica persica (VERPE) = experiment: Post-emergence glasshouse test, visual injury, VERPE; assay type: in vivo
Description: (§1) Seeds of a variety of test species are grown in a sandy loam soil mixture, Lolium multiflorum (LOLMU), Amaranthus retroflexus (AMARE), Echinochloa crus-gaffi (ECHCG), Veronica persica (VERPE), Glycine max (GLXMA), Oryza sativa (ORYSA), Zea mays (ZEAMX), spring wheat (TRZAS), Ipomoea hederacea (IPOHE), Ipomoea purpurea (PHBPU), Stellaria media (STEME), Solanum nigrum (SOLNI), Digitaria sanguinalis (DIGSA), Setaria italica (SETIT), Alopecurus myosuroides (ALOMY) and Avena fatua (AVEFA).
(§2) After sowing, at growth stage BBCH 12-14 (post-emergence), the plants are sprayed with an aqueous spray solution derived from the formulation of the technical active ingredient in acetone/water (50:50) solution containing 0.5% Tween 20 (polyoxyethlyene sorbitan monolaureate, CAS RN 9005-64-5). The test compounds are applied at the required concentration of active ingredient in g/ha. The test plants are then grown in a glasshouse under controlled environmental conditions and watered regularly as required. After 14±1 days post application (for post-emergence test), the test is evaluated by assessing the percentage damage caused to the plants in comparison with the untreated plots. The biological activities for post-emergence testing are shown below (Table 3 and Table 4) as a % visual injury.

[1] = tested on: Amaranthus retroflexus (AMARE); experiment: Post-emergence glasshouse test, visual injury, AMARE; assay type: in vivo
Description: as §1, §2

[2] = tested on: Echinochloa crus-gaffi (ECHCG); experiment: Post-emergence glasshouse test, visual injury, ECHCG; assay type: in vivo, Echinochloa crus-galli
Description: as §1, §2

[3] = tested on: Lolium multiflorum (LOLMU); experiment: Post-emergence glasshouse test, visual injury, LOLMU; assay type: in vivo
Description: as §1, §2

| SMILES | pest or weed control at 125 g/ha (Veronica persica (VERPE)) | pest or weed control at 125 g/ha [1] | pest or weed control at 125 g/ha [2] | pest or weed control at 125 g/ha [3] | pest or weed control at 500 g/ha (Veronica persica (VERPE)) | pest or weed control at 500 g/ha [1] | pest or weed control at 500 g/ha [2] | pest or weed control at 500 g/ha [3] | pest or weed control at 250 g/ha (Veronica persica (VERPE)) | pest or weed control at 250 g/ha [1] | pest or weed control at 250 g/ha [2] | pest or weed control at 250 g/ha [3] |
| --- | --- | --- | --- | --- | --- | --- | --- | --- | --- | --- | --- | --- |
| Cc1cc(-c2cnc(NCc3ccc(F)cc3)nc2C(F)(F)F)on1 [Compound 127] | 98% | 100% | 60% | 0% |  |  |  |  |  |  |  |  |
| CCOCCCNc1ncc(-c2cc(C)no2)c(C(C)(C)C)n1 [Compound 40] |  |  |  |  | 0% | 70% | 30% | 0% |  |  |  |  |
| Cc1cc(-c2cnc(NC(C)C)nc2C(F)(F)F)on1 [Compound 115] | 60% | 20% | 0% | 0% |  |  |  |  |  |  |  |  |
| COCCCNc1ncc(-c2cc(C)no2)c(-c2ccc(C)o2)n1 [Compound 27] |  |  |  |  | 50% | 70% | 20% | 0% |  |  |  |  |
| Cc1cc(-c2cnc(NCc3cccc(Cl)c3)nc2C(C)C)on1 [Compound 117] | 70% | 70% | 70% | 30% |  |  |  |  |  |  |  |  |
| Cc1cc(-c2cnc(NCc3cccc(F)c3)nc2C2CC2)on1 [Compound 85] | 50% | 95% | 80% | 30% |  |  |  |  | 100% | 100% | 100% | 40% |
| Cc1cc(-c2cnc(NC(C)C)nc2C(C)C)on1 [Compound 83] | 70% | 95% | 70% | 40% |  |  |  |  | 100% | 98% | 100% | 50% |
| Cc1cc(-c2cnc(NC3CC3)nc2C2CC2)on1 [Compound 84] | 60% | 60% | 90% | 50% |  |  |  |  | 100% | 80% | 100% | 70% |
| Cc1cc(-c2cnc(N3CCN(c4ncccn4)CC3)nc2C(C)C)on1 [Compound 70] |  |  |  |  | 0% | 80% | 20% | 0% |  |  |  |  |
| Cc1cc(-c2cnc(N3CCC(O)CC3)nc2C2CC2)on1 [Compound 71] |  |  |  |  | 40% | 90% | 60% | 0% |  |  |  |  |
| Cc1cc(-c2cnc(NC3CC3)nc2-c2ccc(C)o2)on1 [Compound 44] |  |  |  |  | 20% | 70% | 20% | 30% |  |  |  |  |
| Cc1cc(-c2cnc(NCc3ccc(C#N)cc3)nc2C(C)C)on1 [Compound 118] | 95% | 80% | 20% | 0% |  |  |  |  |  |  |  |  |
| Cc1cc(-c2cnc(NCc3cccnc3)nc2C(C)C)on1 [Compound 28] |  |  |  |  | 98% | 90% | 70% | 0% |  |  |  |  |
| Cc1cc(-c2cnc(NC(C)C)nc2C(C)(C)C)on1 [Compound 73] |  |  |  |  | 0% | 70% | 70% | 40% |  |  |  |  |
| Cc1cc(-c2cnc(NCc3cccc(F)c3)nc2C(F)(F)F)on1 [Compound 126] | 100% | 95% | 70% | 0% |  |  |  |  |  |  |  |  |
| Cc1cc(-c2cnc(NCCN3CCCC3=O)nc2C2CC2)on1 [Compound 30] |  |  |  |  | 0% | 60% | 70% | 0% |  |  |  |  |
| Cc1cc(-c2cnc(NCc3ccccn3)nc2C2CC2)on1 [Compound 67] |  |  |  |  | 50% | 60% | 40% | 20% |  |  |  |  |
| Cc1cc(-c2cnc(N3CCC(C(N)=O)CC3)nc2-c2ccc(C)s2)on1 [Compound 88] | 0% | 20% | 20% | 0% |  |  |  |  |  |  |  |  |
